We go through 3 molecules from ChEMBL document CHEMBL1156651, “Viridamides A and B, lipodepsipeptides with antiprotozoal activity from the marine cyanobacterium Oscillatoria nigro-viridis” (J Nat Prod, 2008).

Where a SMILES comes first, the peptide text is derived from it. [ ]: non-standard residue; d: D form. The star is where a group is joined. Hmpa(2S,3S) = CC[C@H](C)[C@H](O)C(=O)O; NMeI = CC[C@H](C)[C@H](NC)C(=O)O; NMeV = CN[C@H](C(=O)O)C(C)C; X1 = C#CCCCC(CCCC(=O)*)OC

Type in all cases: functional, organism-based
One assay deals with Leishmania mexicana. Description: Antileishmanial activity against Leishmania mexicana promastigotes by DNA fluorescence method.
The subject of another assay is Trypanosoma cruzi. Briefly: Antitrypanosomal activity against Trypanosoma cruzi Tulahuen C4 in vero cells assessed as intracellular growth inhibition of trypomastigote by beta-galactosidase reporter gene assay.
Another assay concerns Plasmodium falciparum. Briefly: Antimalarial activity against Plasmodium falciparum.

As for `C[C@@H]1[C@H](O)[C@@H](C)/C=C/C=C/C=C/C=C/C=C/C=C/C=C/[C@H](O[C@@H]2O[C@H](C)[C@@H](O)[C@H](N)[C@@H]2O)C[C@@H]2O[C@](O)(C[C@@H](O)C[C@@H](O)[C@H](O)CC[C@@H](O)C[C@@H](O)CC(=O)O[C@H]1C)C[C@H](O)[C@H]2C(=O)O` [AMPHOTERICIN B], the half-maximal inhibitory concentration (IC50) in the assay with Leishmania mexicana worked out at 0.1 µM.

For `CC1CS(=O)(=O)CCN1/N=C/c1ccc([N+](=O)[O-])o1` (stereo not given) [NIFURTIMOX], the IC50 with Trypanosoma cruzi turned out to be 10 µM.

Consider `C#CCCCC(CCCC(=O)N(C)[C@H](C(=O)N[C@H](C(=O)N[C@H](C(=O)N(C)[C@H](C(=O)O[C@H](C(=O)N1CCC[C@H]1C(=O)OC)[C@@H](C)CC)C(C)C)C(C)C)C(C)C)[C@@H](C)CC)OC` (stereo partly drawn) [VIRIDAMIDE A] (X1-[NMeI]VV[NMeV][Hmpa(2S,3S)]P-OMe), for which the concentration for half-maximal inhibition (IC50) is 5.8 µM in the assay on Plasmodium falciparum, 1.5 µM in the assay with Leishmania mexicana and 1.1 µM in the assay on Trypanosoma cruzi.

By IC50 is commonly meant the concentration that inhibits the measured activity by half.
